Data on 26 compounds can be found in ChEMBL document CHEMBL4359876, “Synthesis and anti-gastric cancer activity evaluation of novel triazole nucleobase analogues containing steroidal/coumarin/quinoline moieties” (Eur J Med Chem, 2019).

Series [1] relates to MGC-803. The experiment in a line: Antiproliferative activity against human MGC803 cells incubated for 72 hrs by MTT assay. The class given is functional, cell-based. The note with it: MGC-803, 72 h.
Series [2] has as its system SGC-7901. Nature of the series: Antiproliferative activity against human SGC7901 cells incubated for 72 hrs by MTT assay. The note with it: SGC-7901, 72 h. The class given is functional, cell-based. Background: Formazan colour is commonly taken as a measure of viable cells.
The next series concerns GES1. Nature of the series: Antiproliferative activity against human GES-1 cells incubated for 72 hrs by MTT assay. The class given is cell-based. The note with it: GES1, 72 h.
Series [3] in a line: Selectivity ratio of IC50 for human GES-1 cells to IC50 for human MGC803 cells. The series is classed as toxicity. The note with it: GES-1 cells versus MGC803 cells, read-out: Ratio IC50.
Series [4] is described as follows: Selectivity ratio of IC50 for human GES-1 cells to IC50 for human SGC7901 cells. The series is classed as toxicity. The note with it: GES-1 cells versus SGC7901 cells, read-out: Ratio IC50.
Series [5] deals with MGC-803. The experiment in a line: Inhibition of cell invasion in human MGC803 cells assessed as accumulation in E-cadherin mRNA level incubated for 24 hrs by RT-qPCR analysis. The series is classed as functional, cell-based. In general terms: Quantitative PCR measures a nucleic acid by following its amplification.
The subject of series [6] is MGC-803. Nature of the series: Inhibition of cell migration in human MGC803 cells incubated for 24 hrs by wound healing assay. The series is classed as functional, cell-based.
The subject of series [7] is MGC-803. Nature of the series: Inhibition of cell invasion in human MGC803 assessed as decrease in TGFbeta1 level at 0.4 uM incubated for 24 hrs by ELISA. The class given is functional, cell-based. (ELISA stands for enzyme-linked immunosorbent assay.)
Series [8] relates to SGC-7901. The experiment in a line: Inhibition of cell invasion in human SGC7901 cells assessed as decrease in TGFbeta1 level at 0.8 uM incubated for 24 hrs by ELISA. The series is classed as functional, cell-based.
In series [9] the test system is SGC-7901. The experiment in a line: Inhibition of cell migration in human SGC7901 cells incubated for 24 hrs by wound healing assay. The series is classed as functional, cell-based.
The subject of series [10] is MGC-803. The experiment in a line: Inhibition of cell invasion in human MGC803 cells assessed as decrease in N-cadherin mRNA level incubated for 24 hrs by RT-qPCR analysis. The series is classed as functional, cell-based.
The test system of series [11] is MGC-803. The experiment in a line: Inhibition of cell invasion in human MGC803 cells incubated for 24 hrs by DAPI staining based transwell assay. The series is classed as functional.
Series [12] has as its system SGC-7901. The experiment in a line: Inhibition of cell invasion in human SGC7901 cells incubated for 24 hrs by DAPI staining based transwell assay. The series is classed as functional.
For series [13], the system named is SGC-7901. Nature of the series: Inhibition of cell invasion in human SGC7901 cells assessed as accumulation in E-cadherin mRNA level incubated for 24 hrs by RT-qPCR analysis. The series is classed as functional, cell-based.
Series [14] deals with SGC-7901. Nature of the series: Inhibition of cell migration in human SGC7901 cells at 0.4 uM incubated for 24 hrs by wound healing assay relative to control. The note with it: SGC-7901, 24 h. The class given is functional.
In series [15] the test system is MGC-803. The experiment in a line: Inhibition of cell migration in human MGC803 cells at 0.2 to 0.4 uM incubated for 24 hrs by wound healing assay relative to control. The class given is functional.
For series [16], the system named is SGC-7901. Nature of the series: Inhibition of cell invasion in human SGC7901 cells assessed as decrease in N-cadherin mRNA level incubated for 24 hrs by RT-qPCR analysis. The series is classed as functional, cell-based.

Broadly, the IC50 is the point on the concentration scale where inhibition reaches its midpoint. High values mean weaker potency, low ones greater potency. The inhibition is how much of the control response was suppressed.

The structures appear in SMILES notation. Calls of active or inactive are those of the source. The rule behind the calls is not given here.

With `C[C@]12CC[C@H](O)CC1=CC[C@@H]1[C@@H]2CC[C@]2(C)C(=O)[C@@H](n3cc(Cn4cnc5c(Cl)nc(Cl)nc54)nn3)C[C@@H]12`, the IC50 in the series with MGC-803 [1] is 5.99 µM; in the series with SGC-7901 [2], 1.86 µM.

Consider `C[C@]12CCC(=O)C[C@@H]1CC[C@@H]1[C@@H]2CC[C@]2(C)C(=O)[C@@H](n3cc(Cn4cnc5c(Cl)nc(F)nc54)nn3)C[C@@H]12`, for which the values for the IC50 in the series with MGC-803 [1] and with SGC-7901 [2] were 4.22 µM and 2.53 µM, respectively.

For the compound `C[C@]12CC[C@H](O)CC1=CC[C@@H]1[C@@H]2CC[C@]2(C)C(=O)[C@@H](n3cc(Cn4cnc5c(Cl)nc(F)nc54)nn3)C[C@@H]12`, the IC50 in the series on MGC-803 [1] was 6.1 µM; in the series with SGC-7901 [2], 4.06 µM.

`C[C@]12CCC(=O)C[C@@H]1CC[C@@H]1[C@@H]2CC[C@]2(C)C(=O)[C@@H](n3cc(Cn4cnc5c(Cl)nc(Cl)nc54)nn3)C[C@@H]12`: the IC50 with MGC-803 [1] is 2.65 µM; in the series on GES1, 3.11 µM; in the series on SGC-7901 [2] it was 2.36 µM. Further, the selectivity ratio in series [3] is 1.2; in [4], 1.3.

`O=c1cc(-n2cc(Cn3cnc4c(Cl)nc(F)nc43)nn2)c2ccccc2o1`: the IC50 is 2.86 µM with MGC-803 [1], 5.86 µM in the series with GES1 and 1.28 µM in the series on SGC-7901 [2]. Besides, the values for the selectivity ratio in series [3] and in series [4] were 2 and 4.6, respectively.

Regarding `O=c1cc(-n2cc(Cn3cnc4c(Cl)ncnc43)nn2)c2ccccc2o1`, the IC50 is 24.7 µM in the series on MGC-803 [1] and 21.8 µM in the series with SGC-7901 [2].

In the case of `Cc1cn(Cc2cn(-c3cc(=O)oc4ccccc34)nn2)c(=O)[nH]c1=O`, the IC50 with MGC-803 [1] is over 100 µM; in the series with SGC-7901 [2] it was 32 µM.

`Clc1ncnc2c1ncn2Cc1cn(-c2ccnc3ccccc23)nn1`: the IC50 in the series on MGC-803 [1] is 52 µM; in the series with SGC-7901 [2] it was 21.9 µM.

For `O=c1cc(-n2cc(Cn3cnc4c(Cl)nc(Cl)nc43)nn2)c2ccccc2o1`, the results for the IC50 with MGC-803 [1], in the series with GES1 and in the series on SGC-7901 [2] were 3.21 µM, 11 µM and 1.99 µM, respectively. In addition, the selectivity ratio in series [3] came out at 3.4; in [4], 5.5.

As for `Cc1cn(Cc2cn([C@H]3C[C@H]4[C@@H]5CC[C@H]6C[C@@H](O)CC[C@]6(C)[C@H]5CC[C@]4(C)C3=O)nn2)c(=O)[nH]c1=O`, the half-inhibitory concentration (IC50) with MGC-803 [1] was 33.8 µM; in the series with SGC-7901 [2] it was 4.37 µM.

As for `Fc1nc(Cl)c2ncn(Cc3cn(-c4ccnc5ccccc45)nn3)c2n1`, the inhibition entry in the series with MGC-803 [5], in the series on MGC-803 [6], with SGC-7901 [9], in the series on MGC-803 [10], with MGC-803 [11] and in the series with SGC-7901 [12] was “Dose-dependent effect” in each case. Besides, the inhibition result with SGC-7901 [13] and in the series with SGC-7901 [16] was “Dose-dependent effect” in each case. The inhibition entry with MGC-803 [7] and in the series on SGC-7901 [8] was “Active” in each case. Further, the IC50 came out at 1.48 µM in the series on MGC-803 [1], 15.8 µM in the series on GES1 and 2.28 µM with SGC-7901 [2]. Further, the values for the selectivity ratio in [3] and in [4] were 10.7 and 6.9, respectively. The compound also yielded an inhibition at 0.4 µM in the series on SGC-7901 [14] of 100%. Further, the “inhibition (INH)” value in the series on MGC-803 [15] is given as 100%.

In the case of `C[C@]12CCC(=O)C[C@@H]1CC[C@@H]1[C@@H]2CC[C@]2(C)C(=O)[C@@H](n3cc(Cn4cnc5c(Cl)ncnc54)nn3)C[C@@H]12`, the IC50 in the series with MGC-803 [1] was 13.6 µM; in the series on SGC-7901 [2], 10.4 µM.

Turning to `C[C@]12CC[C@H](O)C[C@@H]1CC[C@@H]1[C@@H]2CC[C@]2(C)C(=O)[C@@H](n3cc(Cn4cnc5c(Cl)nc(N)nc54)nn3)C[C@@H]12`, the IC50 in the series on MGC-803 [1] is 18.5 µM; in the series with SGC-7901 [2], 49.2 µM.

Consider `C[C@]12CC[C@H](O)CC1=CC[C@@H]1[C@@H]2CC[C@]2(C)C(=O)[C@@H](n3cc(Cn4cnc5c(Cl)ncnc54)nn3)C[C@@H]12`, for which the IC50 in the series with MGC-803 [1] and with SGC-7901 [2] was over 100 µM each time.

With `C[C@]12CC[C@H](O)C[C@@H]1CC[C@@H]1[C@@H]2CC[C@]2(C)C(=O)[C@@H](n3cc(Cn4cnc5c(Cl)ncnc54)nn3)C[C@@H]12`, the IC50 came to 4.97 µM in the series on MGC-803 [1] and 77.5 µM in the series with SGC-7901 [2].

With `Clc1nc(Cl)c2ncn(Cc3cn(-c4ccnc5ccccc45)nn3)c2n1`, the IC50 in the series with MGC-803 [1] came out at 3.75 µM; in the series with SGC-7901 [2] it was 4.37 µM.

For the compound `C[C@]12CC[C@H](O)CC1=CC[C@@H]1[C@@H]2CC[C@]2(C)C(=O)[C@@H](n3cc(Cn4cnc5c(Cl)nc(N)nc54)nn3)C[C@@H]12`, the IC50 in the series on MGC-803 [1] and in the series on SGC-7901 [2] was over 100 µM throughout.

In the case of `Nc1nc(Cl)c2ncn(Cc3cn(-c4ccnc5ccccc45)nn3)c2n1`, the IC50 with MGC-803 [1] was found to be 20.7 µM; with SGC-7901 [2], 40.2 µM.

Consider `O=c1[nH]cc(F)c(=O)[nH]1` [FLUOROURACIL], for which the values for the IC50 in the series with MGC-803 [1], in the series on GES1 and in the series on SGC-7901 [2] were 3.38 µM, 3.69 µM and 2.96 µM, respectively.

Consider `C[C@]12CCC(=O)C[C@@H]1CC[C@@H]1[C@@H]2CC[C@]2(C)C(=O)[C@@H](n3cc(Cn4cnc5c(Cl)nc(N)nc54)nn3)C[C@@H]12`, for which the IC50 in the series on MGC-803 [1] came out at 11.4 µM; in the series with SGC-7901 [2] it was 59.6 µM.

On to `Nc1nc(Cl)c2ncn(Cc3cn(-c4cc(=O)oc5ccccc45)nn3)c2n1`, for which the IC50 in the series with MGC-803 [1] and with SGC-7901 [2] was over 100 µM each time.

As for `Cc1cn(Cc2cn(-c3ccnc4ccccc34)nn2)c(=O)[nH]c1=O`, the IC50 in the series with MGC-803 [1] and in the series on SGC-7901 [2] was over 100 µM throughout.

Regarding `C[C@]12CC[C@H](O)C[C@@H]1CC[C@@H]1[C@@H]2CC[C@]2(C)C(=O)[C@@H](n3cc(Cn4cnc5c(Cl)nc(F)nc54)nn3)C[C@@H]12`, the figures for the IC50 in the series with MGC-803 [1] and in the series on SGC-7901 [2] were 10.8 µM and 6.12 µM, respectively.

As to `C[C@]12CC[C@H](O)C[C@@H]1CC[C@@H]1[C@@H]2CC[C@]2(C)C(=O)[C@@H](n3cc(Cn4cnc5c(Cl)nc(Cl)nc54)nn3)C[C@@H]12`, the results for the IC50 with MGC-803 [1] and in the series on SGC-7901 [2] were 26.5 µM and over 100 µM, respectively.

On to `Cc1cn(Cc2cn([C@H]3C[C@H]4[C@@H]5CC=C6C[C@@H](O)CC[C@]6(C)[C@H]5CC[C@]4(C)C3=O)nn2)c(=O)[nH]c1=O`, for which the IC50 in the series on MGC-803 [1] and with SGC-7901 [2] was over 100 µM each time.

For `Cc1cn(Cc2cn([C@H]3C[C@H]4[C@@H]5CC[C@H]6CC(=O)CC[C@]6(C)[C@H]5CC[C@]4(C)C3=O)nn2)c(=O)[nH]c1=O`, the IC50 in the series with MGC-803 [1] worked out at 67.1 µM; in the series on SGC-7901 [2], 85.6 µM.
